Assay results from paper PMC6843832, “Synthesis of Novel Analogs of Thieno[2,3-d] Pyrimidin-4(3H)-ones as Selective Inhibitors of Cancer Cell Growth” (Biomolecules, 2019).
Where two headings read alike, the source gives them in different places.

How the values were obtained:
[1] = tested on: PC-3 cells; test: MTT assay, PC-3 cells; assay type: cell-based; conditions: human prostate cancer cells, 72 h, read-out: Cytotoxic activity (IC50) PC-3
Description: (§1) Primary human liver HL-7702 cells were purchased from SIBS (Shanghai Institutes for Biological Sciences, Shanghai, China) while MCF-7, A549, PC-9 and PC-3 cells were from ATCC (American Type Culture Collection, Rockville, MD, USA). HL-7702, PC-9 and A549 cells were incubated with Roswell Park Memorial Institute (RPMI) 1640 medium and MCF-7 were cultured in Dulbecco’s Modified Eagle’s Medium (DMEM) supplemented with 10% heat-inactivated fetal bovine serum (FBS) and 1% antibiotics (penicillin and streptomycin). PC-3, a human prostate adenocarcinoma cell, was maintained in Ham’s F-12 Medium supplemented with 10% FBS, 1% penicillin/streptomycin and 1% glutamine. All cells were cultured at 37 °C in an incubator containing 5% CO2. The cell viability was determined by using the MTT (methyl thiazolyl tetrazolium bromide) assay. Briefly, cells were seeded in 96-well plates (4 × 10^3 cells/well) overnight and exposed to the synthesized compounds with various concentrations. Camptothecin and dimethyl sulfoxide (DMSO) served as a positive control and a negative control respectively. After 72 h of incubation, 20 μL of MTT (5 mg/mL in phosphate buffer saline (PBS)) were added into each well. Dissolved yellowish MTT is converted to an insoluble purple formazan during incubation (4 h). In order to dissolve the formazan crystals, 100 μL of lysis solution (10% SDS (sodium dodecyl sulfate)-5% isobutyl alcohol-0.01M HCl) was added into per well. Finally, the optical density (OD) of solution in the plates was measured using a microplate reader at 570 nm after dissolving overnight. Cell viability was calculated by using the following formula: […].

[2] = tested on: MCF-7 cells; test: MTT assay, MCF-7 cells; assay type: cell-based; conditions: MCF7, human breast cancer cells, 72 h, read-out: Cytotoxic activity (IC50) MCF-7
Description: as §1

[3] = tested on: PC-9 cells; test: MTT assay, PC-9 cells; assay type: cell-based; conditions: human non-small cell lung cancer cells, 72 h, read-out: Cytotoxic activity (IC50) PC-9
Description: as §1

[4] = tested on: A549 cells; test: MTT assay, A549 cells; assay type: cell-based; conditions: human non-small cell lung cancer cells, read-out: Cytotoxic activity (IC50) A549
Description: as §1

[5] = MTT assay, HL-7702 cells; assay type: cell-based, human; conditions: HL-7702 cells (normal liver cells); normal human liver cells, MTT, 72 h; read-out: Cytotoxic activity (IC50) HL-7702
Description: as §1

Structure (SMILES)	IC50 [1] [µM]	IC50 [2] [µM]	IC50 [3] [µM]	IC50 ([4]; Homo sapiens, A549, 72 h) [µM]	IC50 at 72 h [5] [µM]	melting point [°C]	IC50 ([4]; 72 h) [µM]
O=c1c2c3c(sc2nc(-c2cccs2)n1CCc1ccc(O)cc1)CCCC3 [Compound 12]	21.9 ± 1.76	36.4 ± 1.41	54.2 ± 2.06	11.7 ± 0.12	> 100		
Cc1cc(-c2nc3sc4c(c3c(=O)n2Cc2ccccc2)CCCCC4)sc1C [Compound 13]	92.5 ± 1.89	75.94 ± 0.17	> 100	49.86 ± 0.3	> 100		
Cc1cc(-c2nc3sc4c(c3c(=O)n2CCc2ccc(O)cc2)CCCCC4)sc1C [Compound 14]	84.68 ± 0.48	46.1 ± 0.48	86.33 ± 0.22	49.8 ± 0.68	68.64 ± 0.26	186 to 188	
O=c1c2c3c(sc2nc(-c2ccc(Cl)cc2)n1Cc1ccccc1)CCCCC3 [Compound 16]	> 100	> 100	> 100	81 ± 1.04	> 100	170 to 172	
O=c1c2c3c(sc2nc(-c2ccc(F)cc2)n1Cc1ccccc1)CCCCC3 [Compound 17]	> 100	> 100	> 100	> 100	> 100	146 to 148	
Cc1ccc(-c2nc3sc4c(c3c(=O)n2Cc2ccccc2)CCCCC4)o1 [Compound 18]	92 ± 2.34	96.36 ± 0.72	58.28 ± 0.18	63.2 ± 0.03	> 100		
O=c1c2c3c(sc2nc(-c2ccc(Cl)cc2)n1CCc1ccc(O)cc1)CCCCC3 [Compound 19]	25.1 ± 0.37	13.04 ± 0.11	26.7 ± 1.38	< 10	19.16 ± 0.06		6.26 ± 0.87
Cc1sc2nc(-c3cccs3)n(Cc3ccccc3)c(=O)c2c1C [Compound 20]	> 100	> 100	> 100	80.1 ± 0.83	> 100	162 to 164	
Cc1sc2nc(-c3ccc(F)cc3)n(Cc3ccccc3)c(=O)c2c1C [Compound 21]	> 100	> 100	> 100	> 100	> 100		
Cc1sc2nc(-c3ccccc3)n(CCc3ccc(O)cc3)c(=O)c2c1C [Compound 22]	> 100	21.9 ± 0.82	> 100	> 100	> 100	251 to 253	
Cc1sc2nc(-c3ccc(Cl)cc3)n(CCc3ccc(O)cc3)c(=O)c2c1C [Compound 23]	> 100	70.64 ± 0.59	> 100	46.14 ± 0.17	> 100		
Cc1ccc(-c2nc3sc4c(c3c(=O)n2CCc2ccc(O)cc2)CCOC4)cc1 [Compound 24]	> 100	> 100	> 100	32.9 ± 1.84	> 100		
O=c1c2c3c(sc2nc(-c2cccc(Cl)c2)n1Cc1ccccc1)COCC3 [Compound 25]	94.2 ± 1.83	> 100	> 100	44 ± 0.71	> 100		
